According to the NIST ThermoML archive (doi:10.1016/j.fluid.2018.05.008):
± gives the expanded uncertainty stated by the source.

What was measured:
[1] = xn = mol fraction of the nth substance listed; conditions: 100 kPa, Liquid, Vibrating tube method, x2 = 0.333
[2] = 100 kPa, Liquid, Vibrating tube method

Row | mass density ([1]; 293.15 K) | mass density ([1]; 303.15 K) | mass density ([1]; 313.15 K) | mass density ([1]; 323.15 K) | mass density ([1]; 333.15 K) | mass density ([2]; 293.15 K) | mass density ([2]; 303.15 K) | mass density ([2]; 313.15 K) | mass density ([2]; 323.15 K) | mass density ([2]; 333.15 K) | SMILES
1 | 1199.7 ± 1.1 kg/m3 | 1194.2 ± 1.1 kg/m3 | 1188.6 ± 1.1 kg/m3 | 1183.2 ± 1.1 kg/m3 | 1178 ± 1.1 kg/m3 | – | – | – | – | – | NC(N)=O [urea] + C[N+](C)(C)CCO.[Cl-]
2 | – | – | – | – | – | 790.6 ± 1 kg/m3 | 781.9 ± 1 kg/m3 | 773.3 ± 1 kg/m3 | 764.4 ± 1 kg/m3 | 755.1 ± 1 kg/m3 | CCO [ethanol]
